According to patent US7041470B2, “Method of assaying the susceptibility of biofilms to anti-microbial agents” (University Technologies International, Inc., priority 1996, dated 2006):

How the values were obtained:
[1] = system: staph. aureus planktonic bacteria; test: staph. aureus planktonic bacteria, optical density reading of turbidity; assay type: cell-based, staphylococcus aureus; details: 490 nm
Experimental: (§1) Up to 8 different antibiotics or biocides can be tested by using 1 row (A-H) for each antimicrobial reagent. […] Rinse the remaining projections in PBS using a troughed vessel 20 and place the colonized projections into the 96 well antibiotic plate and incubate overnight at 37° C.

[2] = system: Escherichia coli biofilm; test: Escherichia coli biofilm on projections, antibiotic treatment, manual cfu count; assay type: cell-based
Experimental: Up to 8 different antibiotics or biocides can be tested by using 1 row (A-H) for each antimicrobial reagent. […] Rinse the remaining projections in PBS using a troughed vessel 20 and place the colonized projections into the 96 well antibiotic plate and incubate overnight at 37° C. […] (3) From the freshly sonicated plate remove 0.02 ml of the medium from each well and spot plate neat; and 0.025 ml from each well to prepare a serial dilution (10^−1 to 10^−6) and spot plate 0.02 ml (dilutions can be done in microtiter plates, one for each antibiotic). Place the plate containing the remaining medium and bacteria to incubate at 37° C., overnight. Day 4: Assay the sessile survival, by for example reading the plate incubated overnight at 490 nm or by counting the colonies on the plates to determine the actual number of surviving bacteria, or by using some other method known in the art. Several different conventional methods may be used to count the bacteria. It may be done by incubating the sonicated bacteria, taking serial dilutions and visually counting the colony forming units, or automated methods may be used, as for example using an optical reader to determine optical density. […] In the case of using vital dye technology, the biofilm need not be further incubated. In a further embodiment, the assay may be carried out by sonicating the cells until they lyse and release ATP and then adding luciferase to produce a mechanically readable light output. In a still further embodiment, the assay may be carried out directly on the biofilm on the projections using a confocal microscope, although it should be considered that this is difficult to automate. […] Examples are given to show a comparison between counts of planktonic bacteria and counts of sessile bacteria for the same growth conditions. […] The initial biofilm was colonized for four hours. The antibiotic was applied to the wells 2-12 of the rows A-H of a 96 well plate as follows: well 2: no antibiotic, well 3: 1000 μg/mL, well 4: 500 μg/mL . . . well 12: 2 μg/mL. 250 μL final volume of diluted antibiotic was applied to the wells.

[3] = system: staph. aureus biofilm; test: staph. aureus biofilm, optical density reading of turbidity; assay type: cell-based, staphylococcus aureus; details: 490 nm
Experimental: Up to 8 different antibiotics or biocides can be tested by using 1 row (A-H) for each antimicrobial reagent. […] Rinse the remaining projections in PBS using a troughed vessel 20 and place the colonized projections into the 96 well antibiotic plate and incubate overnight at 37° C. […] (3) From the freshly sonicated plate remove 0.02 ml of the medium from each well and spot plate neat; and 0.025 ml from each well to prepare a serial dilution (10^−1 to 10^−6) and spot plate 0.02 ml (dilutions can be done in microtiter plates, one for each antibiotic). Place the plate containing the remaining medium and bacteria to incubate at 37° C., overnight. Day 4: Assay the sessile survival, by for example reading the plate incubated overnight at 490 nm or by counting the colonies on the plates to determine the actual number of surviving bacteria, or by using some other method known in the art.

[4] = system: Escherichia coli planktonic bacteria; test: Escherichia coli planktonic bacteria, optical density reading of turbidity; assay type: cell-based; details: 490 nm
Experimental: as §1

[5] = system: staphylococcus epidermidis planktonic bacteria; test: staphylococcus epidermidis planktonic bacteria, optical density reading of turbidity; assay type: cell-based; details: 490 nm
Experimental: as §1

[6] = well 5 of doubling dilutions, well 3: 1000 μg/mL to well 12: 2 μg/mL
[7] = well 6 of doubling dilutions, well 3: 1000 μg/mL to well 12: 2 μg/mL ([…] implied)
[8] = well 7 of doubling dilutions, well 3: 1000 μg/mL to well 12: 2 μg/mL
[9] = well 8 of doubling dilutions, well 3: 1000 μg/mL to well 12: 2 μg/mL
[10] = well 9 of doubling dilutions, well 3: 1000 μg/mL to well 12: 2 μg/mL
[11] = well 10 of doubling dilutions, well 3: 1000 μg/mL to well 12: 2 μg/mL ([…] implied)
[12] = well 11 of doubling dilutions, well 3: 1000 μg/mL to well 12: 2 μg/mL

CC(C)(O/N=C(\C(=O)N[C@@H]1C(=O)N2C(C(=O)[O-])=C(C[n+]3ccccc3)CS[C@H]12)c1csc(N)n1)C(=O)O [F, ceftazidine]
optical density reading of turbidity, staph. aureus planktonic bacteria ([1]; well 3: 1000 μg/mL antibiotic): .073
optical density reading of turbidity, staph. aureus planktonic bacteria ([1]; well 4: 500 μg/mL antibiotic): .076
optical density reading of turbidity, staph. aureus planktonic bacteria [1, 6]: .081
optical density reading of turbidity, staph. aureus planktonic bacteria [1, 7]: .079
optical density reading of turbidity, staph. aureus planktonic bacteria [1, 8]: .076
optical density reading of turbidity, staph. aureus planktonic bacteria [1, 9]: .079
optical density reading of turbidity, staph. aureus planktonic bacteria [1, 10]: .078
optical density reading of turbidity, staph. aureus planktonic bacteria [1, 11]: .111
optical density reading of turbidity, staph. aureus planktonic bacteria [1, 12]: .564
optical density reading of turbidity, staph. aureus planktonic bacteria ([1]; well 12: 2 μg/mL antibiotic): .717
manually counted cfu, Escherichia coli biofilm ([2]; well 3: 1000 μg/mL antibiotic, biofilm colonized four hours): 0 cfu
manually counted cfu, Escherichia coli biofilm ([2]; well 4: 500 μg/mL antibiotic, biofilm colonized four hours): 0 cfu
manually counted cfu, Escherichia coli biofilm [2, 6]: 0 cfu
manually counted cfu, Escherichia coli biofilm [2, 7]: 0 cfu
manually counted cfu, Escherichia coli biofilm [2, 8]: 0 cfu
manually counted cfu, Escherichia coli biofilm [2, 9]: 0 cfu
manually counted cfu, Escherichia coli biofilm [2, 10]: 0 cfu
optical density reading of turbidity, staph. aureus biofilm ([3]; well 3: 1000 μg/mL antibiotic): .779
optical density reading of turbidity, staph. aureus biofilm ([3]; well 4: 500 μg/mL antibiotic): .830
optical density reading of turbidity, staph. aureus biofilm [3, 6]: .777
optical density reading of turbidity, staph. aureus biofilm [3, 7]: .739
optical density reading of turbidity, staph. aureus biofilm [3, 8]: .719
optical density reading of turbidity, staph. aureus biofilm [3, 9]: .840
optical density reading of turbidity, staph. aureus biofilm [3, 10]: .806
optical density reading of turbidity, staph. aureus biofilm [3, 11]: .882
optical density reading of turbidity, staph. aureus biofilm [3, 12]: .924
optical density reading of turbidity, staph. aureus biofilm ([3]; well 12: 2 μg/mL antibiotic): .916
optical density reading of turbidity, Escherichia coli planktonic bacteria ([4]; well 3: 1000 μg/mL antibiotic): .123
optical density reading of turbidity, Escherichia coli planktonic bacteria ([4]; well 4: 500 μg/mL antibiotic): .129
optical density reading of turbidity, Escherichia coli planktonic bacteria [4, 6]: .134
optical density reading of turbidity, Escherichia coli planktonic bacteria [4, 7]: .137
optical density reading of turbidity, Escherichia coli planktonic bacteria [4, 8]: .128
optical density reading of turbidity, Escherichia coli planktonic bacteria [4, 9]: .137
optical density reading of turbidity, Escherichia coli planktonic bacteria [4, 10]: .137
optical density reading of turbidity, Escherichia coli planktonic bacteria [4, 11]: .140
optical density reading of turbidity, Escherichia coli planktonic bacteria [4, 12]: .147
optical density reading of turbidity, Escherichia coli planktonic bacteria ([4]; well 12: 2 μg/mL antibiotic): .152
optical density reading of turbidity, staphylococcus epidermidis planktonic bacteria ([5]; well 3: 1000 μg/mL antibiotic): .359
optical density reading of turbidity, staphylococcus epidermidis planktonic bacteria ([5]; well 4: 500 μg/mL antibiotic): .383
optical density reading of turbidity, staphylococcus epidermidis planktonic bacteria [5, 6]: .397
optical density reading of turbidity, staphylococcus epidermidis planktonic bacteria [5, 7]: .410
optical density reading of turbidity, staphylococcus epidermidis planktonic bacteria [5, 8]: .466
optical density reading of turbidity, staphylococcus epidermidis planktonic bacteria [5, 9]: .540
optical density reading of turbidity, staphylococcus epidermidis planktonic bacteria [5, 10]: .615
optical density reading of turbidity, staphylococcus epidermidis planktonic bacteria [5, 11]: .627
optical density reading of turbidity, staphylococcus epidermidis planktonic bacteria [5, 12]: .694
optical density reading of turbidity, staphylococcus epidermidis planktonic bacteria ([5]; well 12: 2 μg/mL antibiotic): .853
